In patent publication EP0504335B1, “A FIBRONECTIN BINDING PEPTIDE” (priority 1990, dated 1997):
Peptide text beside a SMILES is read from it.

Columns and labels:
Human fibronectin = assay type: binding; settings: for IC50: read-out: concentration eliciting a 50% inhibition of fibronectin binding
Treponema palladium = settings: Thomas et al., 1985b; cited from earlier work
Trypanosoma cruzi = settings: Ouaissi et al., 1986; cited from earlier work
spirochetes = settings: cited from earlier work

Compound	inhibitory activity (inhibition of ^125I-HFN binding to S. aureus 8325-4), in words (Human fibronectin)	IC50 (Human fibronectin) [µM]	other results
CC[C@H](C)[C@H](NC(=O)[C@H](CCC(=O)O)NC(=O)[C@@H](NC(=O)[C@H](Cc1c[nH]cn1)NC(=O)[C@H](CCCCN)NC(=O)[C@H](CC(N)=O)NC(=O)[C@@H](N)Cc1ccccc1)[C@@H](C)O)C(=O)N[C@H](C(=O)N[C@@H](CCC(=O)O)C(=O)N[C@@H](CCC(=O)O)C(=O)N[C@@H](CC(=O)O)C(=O)N[C@H](C(=O)N[C@@H](CC(N)=O)C(=O)N[C@@H](CCCCN)C(=O)N[C@@H](CC(=O)O)C(=O)N[C@@H](CCCCN)C(=O)N1CCC[C@H]1C(=O)N[C@@H](CO)C(=O)N[C@@H](Cc1ccc(O)cc1)C(=O)N[C@@H](CCC(N)=O)C(=O)N[C@@H](Cc1ccccc1)C(=O)NCC(=O)NCC(=O)N[C@@H](Cc1c[nH]cn1)C(=O)N[C@@H](CC(N)=O)C(=O)N[C@@H](CO)C(=O)N[C@H](C(=O)N[C@@H](CC(=O)O)C(=O)N[C@@H](Cc1ccccc1)C(=O)N[C@@H](CCC(=O)O)C(=O)N[C@@H](CCC(=O)O)C(=O)N[C@@H](CC(=O)O)C(=O)N[C@H](C(=O)N[C@@H](CC(C)C)C(=O)N1CCC[C@H]1C(=O)N[C@@H](CCCCN)C(=O)N[C@H](C(=O)O)C(C)C)[C@@H](C)O)C(C)C)[C@@H](C)O)[C@@H](C)CC [Peptide D3] (H-FNKHTEIIEEDTNKDKPSYQFGGHNSVDFEEDTLPKV-OH)	effective inhibitors	–	–
CC(C)C[C@H](NC(=O)[C@@H](NC(=O)[C@H](CC(=O)O)NC(=O)[C@H](CCC(=O)O)NC(=O)[C@H](CCC(=O)O)NC(=O)[C@H](Cc1ccccc1)NC(=O)[C@H](CC(=O)O)NC(=O)[C@@H](NC(=O)[C@H](CO)NC(=O)[C@H](CC(N)=O)NC(=O)[C@H](Cc1c[nH]cn1)NC(=O)CNC(=O)CNC(=O)[C@H](Cc1ccccc1)NC(=O)[C@H](CCC(N)=O)NC(=O)[C@H](Cc1ccc(O)cc1)NC(=O)[C@H](CO)NC(=O)[C@@H]1CCCN1C(=O)[C@@H](N)CCCCN)C(C)C)[C@@H](C)O)C(=O)N1CCC[C@H]1C(=O)N[C@@H](CCCCN)C(=O)O [Peptide S16-36] (H-KPSYQFGGHNSVDFEEDTLPK-OH)	–	10	–
CC(C)[C@H](NC(=O)[C@H](CO)NC(=O)[C@H](CC(N)=O)NC(=O)[C@H](Cc1c[nH]cn1)NC(=O)CNC(=O)CNC(=O)[C@H](Cc1ccccc1)NC(=O)[C@H](CCC(N)=O)NC(=O)[C@H](Cc1ccc(O)cc1)NC(=O)[C@H](CO)NC(=O)[C@@H]1CCCN1)C(=O)N[C@@H](CC(=O)O)C(=O)N[C@@H](Cc1ccccc1)C(=O)N[C@@H](CCC(=O)O)C(=O)N[C@@H](CCC(=O)O)C(=O)N[C@@H](CC(=O)O)C(=O)N[C@H](C(=O)O)[C@@H](C)O [Peptide S17-33] (H-PSYQFGGHNSVDFEEDT-OH)	dramatic recovery of activity	100	–
CC(C)C[C@H](NC(=O)[C@@H](NC(=O)[C@H](CC(=O)O)NC(=O)[C@H](CCC(=O)O)NC(=O)[C@H](CCC(=O)O)NC(=O)[C@H](Cc1ccccc1)NC(=O)[C@H](CC(=O)O)NC(=O)[C@@H](NC(=O)[C@H](CO)NC(=O)[C@H](CC(N)=O)NC(=O)[C@H](Cc1c[nH]cn1)NC(=O)CNC(=O)CNC(=O)[C@H](Cc1ccccc1)NC(=O)[C@@H](N)CCC(N)=O)C(C)C)[C@@H](C)O)C(=O)N1CCC[C@H]1C(=O)N[C@@H](CCCCN)C(=O)O [Peptide S20-36] (H-QFGGHNSVDFEEDTLPK-OH)	–	200	–
CC(C)C[C@H](NC(=O)[C@@H](NC(=O)[C@H](CC(=O)O)NC(=O)[C@H](CCC(=O)O)NC(=O)[C@H](CCC(=O)O)NC(=O)[C@H](Cc1ccccc1)NC(=O)[C@H](CC(=O)O)NC(=O)[C@@H](NC(=O)[C@H](CO)NC(=O)[C@H](CC(N)=O)NC(=O)[C@H](Cc1c[nH]cn1)NC(=O)CNC(=O)CNC(=O)[C@@H](N)Cc1ccccc1)C(C)C)[C@@H](C)O)C(=O)N1CCC[C@H]1C(=O)N[C@@H](CCCCN)C(=O)O [Peptide S21-36] (H-FGGHNSVDFEEDTLPK-OH)	–	–	fold less effective than S20-36 (Human fibronectin): about 10 fold
RGDS	–	–	binding of fibronectin to Treponema palladium, in words (Treponema palladium): prevented; binding of fibronectin to Trypanosoma cruzi, in words (Trypanosoma cruzi): prevented; attachment of spirochetes to cultured human cells, in words (spirochetes): blocked
